Measured values as given in US20050244490A1, “Dosing methods for beta-D-2',3'-dideoxy-2',3'-didehydro-5-fluorocytidine antiviral therapy” (priority 2003, published 2005).
Where “and” joins values, the source holds several entries; their conditions need not be identical. Equal entries are not always repeated. Where two headings read alike, the source gives them in different places.

How the values were obtained:
plasma HIV-1 RNA = assay type: in vivo; conditions: for reduction of viral load: 48 hours
Description: The study consisted of a double-blind, randomized, placebo-controlled, three-period crossover, dose escalation design in HIV-infected male subjects. Five dose levels (10, 25, 50, 100, and 200 mg) were administered in three cohort studies. Seven days elapsed between the end of one cohort and the start of the next dosing period.

M184V mutant RT = M184V mutant RT (Human immunodeficiency virus type 1 group M subtype B, UniProt P04585, M771V); assay: biochemical; assay type: biochemical, HIV-1; conditions: read-out: Ki for mutant RT
in vivo [1] = conditions: dog, 15 mg/kg
[2] = pbmc
[3] = human, in vivo
[4] = Pharmacokinetics in the rhesus monkey; assay type: in vivo
[5] = system: mouse primary bone marrow cells; assay: Mitochondrial toxicity in primary bone marrow cells; assay type: cell-based; conditions: concentrations <1 mM
[6] = Safety and tolerability of single oral doses
Source text: Total of 18 HIV-1 infected males, aged 18-55 years, enrolled, 6 per treatment cohort.

wild type HIV-1 = assay: Inhibition of wild type virus replication in MT-2 cells or PBMCs; assay type: cell-based; conditions: Human immunodeficiency virus 1, MT2; wild type laboratory and clinical isolates of HIV-1
Source text: The target concentration is that concentration where most mutant variants tested are suppressed by 90% or more.

[7] = Cytotoxicity, MTT reduction; assay type: cell-based; conditions: read-out: TC50
Description: Cytotoxicity was measured by reduction of the formazan dye MTT, which is catalyzed by mitochondrial succinate dehydrogenase.

in vivo [8] = conditions: rat

Question: Which results are given for `Nc1nc(=O)n(C2C=CC(CO)O2)cc1F` [β-D-D4FC, β-D-2′,3′-Didehydro-2′,3′-dideoxy-5-fluorocytidine]?
Answer: drop in viral load, subject with mutant virus L41+N103+C181+W210+D215 (plasma HIV-1 RNA; 10 mg): 0.61 log10; reduction of viral load (plasma HIV-1 RNA; 10 mg dose): 0.42±0.2 log10 and 0.42 log10; Change in Plasma HIV-1 RNA (plasma HIV-1 RNA; 10 mg, 12 h): 0.05 ± 0.09 log10; Change in Plasma HIV-1 RNA (plasma HIV-1 RNA; 10 mg, 24 h): −0.12 ± 0.14 log10; Change in Plasma HIV-1 RNA (plasma HIV-1 RNA; 10 mg, 48 h): −0.42 ± 0.20 log10; drop in viral load, subject with mutant virus L41+N103+C181+W210+D215 (plasma HIV-1 RNA; 25 mg): 0.43 log10; Change in Plasma HIV-1 RNA (plasma HIV-1 RNA; 25 mg, 12 h): 0.03 ± 0.09 log10; Change in Plasma HIV-1 RNA (plasma HIV-1 RNA; 25 mg, 24 h): −0.13 ± 0.10 log10; Change in Plasma HIV-1 RNA (plasma HIV-1 RNA; 25 mg, 48 h): −0.34 ± 0.26 log10; Change in Plasma HIV-1 RNA (plasma HIV-1 RNA; 100 mg, 12 h): −0.03 ± 0.08 log10; Change in Plasma HIV-1 RNA (plasma HIV-1 RNA; 100 mg, 24 h): −0.15 ± 0.14 log10; Change in Plasma HIV-1 RNA (plasma HIV-1 RNA; 100 mg, 48 h): −0.44 ± 0.17 log10; reduction of viral load (plasma HIV-1 RNA; 100 mg): 0.44±0.17; Change in Plasma HIV-1 RNA (plasma HIV-1 RNA; 200 mg, 12 h): −0.02 ± 0.24 log10; Change in Plasma HIV-1 RNA (plasma HIV-1 RNA; 200 mg, 24 h): −0.06 ± 0.22 log10; Change in Plasma HIV-1 RNA (plasma HIV-1 RNA; 200 mg, 48 h): −0.27 ± 0.28 log10; Change in Plasma HIV-1 RNA (plasma HIV-1 RNA; 50s mg (solution), 12 h): 0.00 ± 0.00 log10; Change in Plasma HIV-1 RNA (plasma HIV-1 RNA; 50s mg (solution), 24 h): −0.11 ± 0.07 log10; Change in Plasma HIV-1 RNA (plasma HIV-1 RNA; 50s mg (solution), 48 h): −0.44 ± 0.02 log10; Change in Plasma HIV-1 RNA (plasma HIV-1 RNA; 50t mg (tablet), 12 h): 0.05 ± 0.07 log10; Change in Plasma HIV-1 RNA (plasma HIV-1 RNA; 50t mg (tablet), 24 h): −0.08 ± 0.07 log10; Change in Plasma HIV-1 RNA (plasma HIV-1 RNA; 50t mg (tablet), 48 h): −0.46 ± 0.25 log10; average reduction of viral load (plasma HIV-1 RNA; 24 hour time point): 0.11±0.11; mean reduction of viral load after a single oral dose (plasma HIV-1 RNA; all dose levels, up to 48 hours): 0.4±0.2 log10 and 0.42±0.2 log10; mean reduction of viral load after a single oral dose (plasma HIV-1 RNA; various dosage levels, 24 and 48 hours): approximately 40%; Ki (M184V mutant RT): 300 to 500 nM; AUC at 12 m (in vivo [1]; female): 431 µM·h; Cmax at 12 m (in vivo [1]; female): 69 µM; AUC at 12 m (in vivo [1]; male): 401 µM·h; Cmax at 12 m (in vivo [1]; male): 74 µM; Intracellular half life [2]: 13 to 17 h; Intracellular [Nuc-PPP] in patients (target) [3]: 0.5 µM; plasma half-life ([4]; compared with AZT and 3TC): longer than either AZT or 3TC; clearance of parent ([4]; rhesus monkey, in vivo): low clearance; mitochondrial toxicity [5]: not associated with mitochondrial toxicity; serious adverse events ([6]; any dose level): no serious adverse events; tolerability of single doses ([6]; in vivo): well tolerated; IC90 (wild type HIV-1): 855 ± 400 nM; CC50 at 96 h ([7]; African green monkey, Vero cells): > 100 µM; CC50 at 144 h ([7]; PBMCs): > 100 µM; CC50 at 30 h ([7]; hamster, BHK-21 cells): > 30 µM; CC50 at 24 h ([7]; human, 293 cells): > 30 µM; CC50 at 48 h ([7]; human, Huh7 cells): > 30 µM; CC50 at 72 h ([7]; human, MT-2 cells): > 220 µM; AUC at 28 d (in vivo [8]; 15 mg/kg): 70 µM·h; Cmax at 28 d (in vivo [8]; 15 mg/kg): 17 µM; AUC at 28 d (in vivo [8]; 45 mg/kg): 161 µM·h; Cmax at 28 d (in vivo [8]; 45 mg/kg): 44 µM
